Measurements taken from US20190208782A1, “PROCESSING COMPOSITION FOR C[…] WEEDS” (Arch Chemicals, Inc., priority 2018, published 2019).
≈ marks a conversion by molar mass, not a printed value.

What was measured:
Format in all cases: in vivo
water hyacinth = experiment: Foliar application of fluroxypyr herbicide on water hyacinth (Example 2); settings: for Water hyacinth biomass reduction: 6 WAT
Method: Materials and Methods: Water hyacinth was obtained from field locations and cultured outdoors in a 300 gallon tank. Water in the culture tank was amended with 30 mg/L Miracle-Gro® fertilizer (14-8-16) every week to maintain plant growth. Aquashade® was added to the tank in sufficient concentration to darken the water in order to reduce algae growth
Once a sufficient density of water hyacinth had been achieved in the culture tank (plants had covered the water surface), 54-63 rosettes of similar size were harvested and divided so that six to seven rosettes (depending upon size) were placed into each of 9, 100 gallon treatment tanks. The treatment tanks were filled to a depth of 45 cm with water. Water in each treatment tank was amended and maintained in a similar fashion as the culture tank. Plants were allowed to grow approximately 2 weeks or until the water surface in each tank had been covered. Pre-treatment biomass (1 per tank) was harvested using a 0.1 m^2 PVC quadrat. The quadrat was pushed down over the plant mat in each tank and all biomass was harvested within the PVC frame. Biomass from each tank was rinsed, placed in a paper bag, and dried at 50 C to assess biomass.
After the growth period and pre-treatment harvest, plants were treated as a foliar spray using the product and rates outlined in Table 3. Treatments were applied using water as a carrier in a fine foliar spray and a total spray volume of 100 gal/acre. AB Brand Adjuvant (commercially available from Lonza, Inc.) was included in the herbicide solution at a rate of 0.25% v:v.
After treatment, each tank was rated on a scale from 0 (no control) to 100% (complete mortality) control every week for six weeks. At six weeks after treatment the 0.1 m^2 PVC quadrat was used to harvest 1 biomass sample from each tank if living biomass was present. Samples were rinsed, placed into labeled paper bags, and dried at 50 C to determine dry weight biomass. Differences between treatments were analyzed using ANOVA at a p≤0.05 significance level, and if a difference in treatments was detected means were then separated using a Fisher's Protected LSD test.

Eurasian watermilfoil = experiment: Fluroxypyr potassium salt vs ester formulation on Eurasian watermilfoil in small scale aquaria (Example 3); settings: 24 h exposure, 4 WAT
Method: Materials and Methods: Eurasian watermilfoil was obtained from cultures. Two apical tips approximately 10 cm long were planted into each of 96, plastic containers (473 mL). The containers were filled with potting soil and amended with 2 g/L/soil Osmocote® fertilizer 19-6-12. A layer of sand was placed on top of the sediment in each container to prevent sediment re-suspension in the aquaria. Four containers of potted Eurasian watermilfoil were placed into each of 24 aquaria. Each aquaria was filled to a volume of 45 L and plants allowed to grow approximately 2-3 weeks prior to herbicide treatments or until plants were at or near the water surface. Pre-treatment biomass was harvested from extra aquaria set up with pots for this purpose. Biomass was harvested by cutting aboveground biomass of plants at the soil surface in the three pretreatment aquaria. Harvested plant material was placed into individually labeled paper bags, dried in a force air oven at 50 C for at least 48 h, and then weighed to assess biomass. […]
Each week, aquaria were rated for percent control on a 0-100% scale (0%=no control; 100% complete plant mortality). […] Differences between treatments were analyzed using ANOVA and means separated using a Fisher's Protected LSD test at a p≤0.05 significance level.

[1] = system: Elodea (Elodea canadensis); experiment: Native plant selectivity screening in aquaria, elodea (Example 6); settings: static exposure; for Elodea biomass vs untreated reference plants: four WAT
Method: Materials and Methods: The study was conducted in an indoor aquaria facility. Elodea (Elodea canadensis) was obtained from cultures. Two apical tips approximately 10 cm long were planted into each of 48, plastic containers (16 oz. plastic cups). The containers were filled with potting soil and amended with 2 g/L Osmocote® fertilizer 19-6-12. A layer of sand was placed on top of the sediment in each container to prevent sediment re-suspension in the aquaria. Two containers of potted elodea were placed into each of 24 aquaria measuring 11.5 in×11.5 in×24 in. Additionally, sago pondweed (Stuckenia pectinata) tubers were obtained. The tubers were floated in shallow containers filled with water until new sprouts began to grow.
Once sprouted, two tubers were planted into 16 oz containers in a similar fashion as elodea. Two containers of potted sago pondweed were placed into each of the 24 aquaria, so that each aquarium had 4 potted plants (2 pots of each species). Each aquarium was filled to a volume of 45 L and plants allowed to grow approximately 3-4 weeks prior to herbicide treatments or until plants were at or near the water surface. Supplemental lighting was provided using Agrobrite growth lamps on a 12:12 light:dark cycle. After the plants reached the desired level of growth, a liquid formulation of fluroxypyr ester was applied as a concentrated aqueous solution at the concentrations outlined in Table 9. An untreated reference was also included for comparison purposes. All herbicide applications were made using a static exposure and replicated 3 times. […] Water was added to the aquaria as needed to maintain the desired 45 L volume of water.
At four weeks after treatment (WAT), plants were, harvested, sorted to aboveground biomass, dried in a forced air oven at 50 C for at least 48 h, and weighed for biomass determination (g/DW/aquaria). Differences between treatments were analyzed using an ANOVA, and if treatment differences were detected; means were separated using a Tukey's All-Pairwise comparison test. All analyses were conducted at a p≤0.05 significance level. Additionally, regression models were fit to elodea biomass data in order to estimate the EC50 concentration under the current experimental design.

For `CCCCCCC(C)OC(=O)COc1nc(F)c(Cl)c(N)c1Cl` (stereo not drawn) [Fluroxypyr ester, [(4-amino-3,5-dichloro-6-fluoro-2-pyridinyl)oxy]acetic acid, 1-methylheptyl ester], the “Mean percent control ratings of water hyacinth” value (from here on “Mean percent control ratings”) (water hyacinth; 8 oz/acre foliar spray, 1 week after treatment) was 15%, the “Mean percent control ratings” value (water hyacinth; 8 oz/acre foliar spray, 2 weeks after treatment) was 40% and the “Mean percent control ratings” value (water hyacinth; 8 oz/acre foliar spray, 3 weeks after treatment) was 45%. The “Mean percent control ratings” value (water hyacinth; 8 oz/acre foliar spray, 4 weeks after treatment) was 65%, the “Mean percent control ratings” value (water hyacinth; 8 oz/acre foliar spray, 5 weeks after treatment) was 85% and the “Water hyacinth biomass reduction” value (water hyacinth; 8 oz/acre foliar spray) was 90%. For the same compound, the “Mean percent control ratings” value (water hyacinth; 8 oz/acre foliar spray, 6 weeks after treatment) was 85%, the “time of plant death” value (water hyacinth; 16 oz/acre foliar spray) was “approximately 4 WAT” and the “Mean percent control ratings” value (water hyacinth; 16 oz/acre foliar spray, 1 week after treatment) was 35%. The “Mean percent control ratings” value (water hyacinth; 16 oz/acre foliar spray, 2 weeks after treatment) was 45%, the “Mean percent control ratings” value (water hyacinth; 16 oz/acre foliar spray, 3 weeks after treatment) was 65% and the “Mean percent control ratings” value (water hyacinth; 16 oz/acre foliar spray, 4 weeks after treatment) was 85%. The “Mean percent control ratings” value (water hyacinth; 16 oz/acre foliar spray, 5 weeks after treatment) was 95%, the “Water hyacinth biomass reduction” value (water hyacinth; 16 oz/acre foliar spray) was 99% and the “Mean percent control ratings” value (water hyacinth; 16 oz/acre foliar spray, 6 weeks after treatment) was 95%. For the same compound, the “Eurasian watermilfoil biomass reduction” value (Eurasian watermilfoil; 200 ug/L) was 100%, the “Eurasian watermilfoil biomass reduction” value (Eurasian watermilfoil; 400 ug/L) was 100% and the “Elodea biomass vs untreated reference plants” value ([1]; 400 ug/L or higher) was “reduced”. The “Elodea biomass vs untreated reference plants” value ([1]; 50, 100, and 200 ug/L) was “similar”, the EC50 ([1]; Elodea canadensis, 4 WAT, aquaria, read-out: EC50 for elodea (biomass, regression model)) was 0.356 µg/mL (≈ 0.969 µM) and the “herbicide symptoms on elodea” value ([1]; within one WAT, transient in the lower concentration treatments) was “epinastic twisting and bending”.
